{"source": "patent US11319374B2", "about": "“Inhibitors of prototypic galectin dimerization and uses thereof” (INSTITUT NATIONAL DE LA RECHERCHE SCIENTIFIQUE, priority 2015, dated 2022)", "key": {"Jurkat T cells": {"system": "Jurkat T cells", "experiment": "FITC-labeled hGal-7 binding on Jurkat T cells, flow cytometry", "assay_type": "cell-based", "conditions": "FITC-labeled hGal-7 0.1 μM pre-incubated with peptide, FIG. 4", "protocol": "FITC conjugation and hGal-7 binding assay. To assess hGal-7 binding onto Jurkat T cells, 5 μL of a 1.25 mg/mL fluorescein isothiocyanate (FITC)/DMSO solution was added to 300 μL of 1.7 μg/μL recombinant hGal-7 in a 0.1 M NaHCO3 pH 9.2 solution and incubated for 1 h at room temperature on a roller. FITC-labeled hGal-7 was then purified using a PD-10 Sepharose® column (GE healthcare) and eluted with PBS containing 0.01% [v/v] sodium azide. FITC-labeled hGal-7 (0.1 μM) was then pre-incubated with hGal-7(129-135) (or related peptides) in 20 mM potassium phosphate buffer pH 7.1 for 1 h at 4° C. Jurkat cells (5×10^5 cells per sample) were harvested in PBS-0.01% [v/v] sodium azide and incubated for 30 min on ice with the FITC-labeled hGal-7 with and without peptides. Cells were then washed with PBS-0.01% [v/v] sodium azide and resuspended in 400 μL of the same buffer and analyzed on a FACSCalibur® (BD Biosciences®).\nIt was thus tested whether hGal-7(129-135) could modulate the binding of hGal-7 on Jurkat T cells, a cell model that is commonly used to test the pro-apoptotic activity of galectins. For this purpose, recombinant hGal-7 was labeled with fluorescein isothiocyante (FITC) and its binding on the surface of Jurkat T cells was measured by flow cytometry in absence or presence of increasing concentrations of hGal-7(129-135). […]"}, "hGal-7/Bcl-2 heterodimer": {"biological_target": "T1, hGal-7/Bcl-2 heterodimer (Homo sapiens, UniProt P47929)", "T1 construct": "host or cells: E. coli BL21 (DE3) (hGal-7)", "T1 sequence (P47929 2-136 limits assumed, one chain of several)": "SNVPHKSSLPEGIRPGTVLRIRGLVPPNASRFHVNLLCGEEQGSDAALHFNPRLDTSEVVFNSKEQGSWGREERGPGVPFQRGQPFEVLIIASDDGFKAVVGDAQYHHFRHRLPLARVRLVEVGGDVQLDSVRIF", "experiment": "hGal-7/Bcl-2 heterodimer disruption, low-SDS Western blotting with anti-Gal-7 antibody", "assay_type": "biochemical", "conditions": "hGal-7 and Bcl-2 each 0.5 μM, especially at the highest dose of 500 μM, FIG. 12C", "protocol": "FIGS. 12A to 12C show the dose-dependent disruption of the hGal-7/Bcl-2 heterodimer in the presence of the hGal-7(129-135) peptide. FIGS. 12A and 12B: detection of hGal-7/Bcl-2 heterodimers in the presence of the indicated amounts of recombinant Bcl-2 using an anti-gal-7 antibody (FIG. 12A) or an anti-Bcl-2 antibody (FIG. 12B). FIG. 12C: the recombinant hGal-7 and Bcl-2 (each at 0.5 μM) were incubated with increasing concentrations of hGal-7(129-135) in 20 mM potassium phosphate buffer (pH 7.1). The effect of hGal-7(129-135) on the homodimerization and heterodimerization (with Bcl-2) of hGal-7 was assessed by Western blotting in low-SDS conditions with an anti-Gal-7 antibody.\nProduction of recombinant hGal-7 and hGal-1. Human Gal-7 cDNA was cloned into pET-22b(+) using Ndel and HindIII restriction enzymes. Human pET-Gal-1 vector was generously donated by Dr. S. Sato (McGill University, QC, Canada). The proteins were produced in E. coli BL21 (DE3) cells at 37° C. Isopropyl p-D-1-thiogalactopyranoside (IPTG) (1 mM) was added to the bacterial culture at OD600nm=0.6-0.7 and then incubated for 4 h at 37° C. to allow protein production. […] Purified fractions were analyzed by SDS-PAGE. […]"}}}
{"substance": "H-Leu-Asp-Ser-Val-Arg-Ile-Phe-NH2 (H-LDSVRIF-NH2; listed as Homo sapiens) [hGal-7(129-135), peptide corresponding to residues 129-135 of hGal-7]", "values": [{"measurement": "fluorescent intensity of Jurkat T cells due to FITC-labeled hGal-7 binding", "setting": "Jurkat T cells", "result": "increased the fluorescent intensity of Jurkat T cells in a concentration-dependent manner"}, {"measurement": "amount of hGal-7/Bcl-2 heterodimers", "setting": "hGal-7/Bcl-2 heterodimer", "result": "decreased"}]}
